The values that follow come from PMC6090075 (Acta Pharmaceutica Sinica. B, 2017).

For the test, the target named is low-density lipoprotein receptor (LDLR)-related protein 6 (LRP6) (Homo sapiens, UniProt O75581). In words: SPR on immobilized recombinant LRP6. The format is binding.

Structures are written as SMILES.

low-density lipoprotein receptor (LDLR)-related protein 6 (LRP6), sequence (O75581 20-1613): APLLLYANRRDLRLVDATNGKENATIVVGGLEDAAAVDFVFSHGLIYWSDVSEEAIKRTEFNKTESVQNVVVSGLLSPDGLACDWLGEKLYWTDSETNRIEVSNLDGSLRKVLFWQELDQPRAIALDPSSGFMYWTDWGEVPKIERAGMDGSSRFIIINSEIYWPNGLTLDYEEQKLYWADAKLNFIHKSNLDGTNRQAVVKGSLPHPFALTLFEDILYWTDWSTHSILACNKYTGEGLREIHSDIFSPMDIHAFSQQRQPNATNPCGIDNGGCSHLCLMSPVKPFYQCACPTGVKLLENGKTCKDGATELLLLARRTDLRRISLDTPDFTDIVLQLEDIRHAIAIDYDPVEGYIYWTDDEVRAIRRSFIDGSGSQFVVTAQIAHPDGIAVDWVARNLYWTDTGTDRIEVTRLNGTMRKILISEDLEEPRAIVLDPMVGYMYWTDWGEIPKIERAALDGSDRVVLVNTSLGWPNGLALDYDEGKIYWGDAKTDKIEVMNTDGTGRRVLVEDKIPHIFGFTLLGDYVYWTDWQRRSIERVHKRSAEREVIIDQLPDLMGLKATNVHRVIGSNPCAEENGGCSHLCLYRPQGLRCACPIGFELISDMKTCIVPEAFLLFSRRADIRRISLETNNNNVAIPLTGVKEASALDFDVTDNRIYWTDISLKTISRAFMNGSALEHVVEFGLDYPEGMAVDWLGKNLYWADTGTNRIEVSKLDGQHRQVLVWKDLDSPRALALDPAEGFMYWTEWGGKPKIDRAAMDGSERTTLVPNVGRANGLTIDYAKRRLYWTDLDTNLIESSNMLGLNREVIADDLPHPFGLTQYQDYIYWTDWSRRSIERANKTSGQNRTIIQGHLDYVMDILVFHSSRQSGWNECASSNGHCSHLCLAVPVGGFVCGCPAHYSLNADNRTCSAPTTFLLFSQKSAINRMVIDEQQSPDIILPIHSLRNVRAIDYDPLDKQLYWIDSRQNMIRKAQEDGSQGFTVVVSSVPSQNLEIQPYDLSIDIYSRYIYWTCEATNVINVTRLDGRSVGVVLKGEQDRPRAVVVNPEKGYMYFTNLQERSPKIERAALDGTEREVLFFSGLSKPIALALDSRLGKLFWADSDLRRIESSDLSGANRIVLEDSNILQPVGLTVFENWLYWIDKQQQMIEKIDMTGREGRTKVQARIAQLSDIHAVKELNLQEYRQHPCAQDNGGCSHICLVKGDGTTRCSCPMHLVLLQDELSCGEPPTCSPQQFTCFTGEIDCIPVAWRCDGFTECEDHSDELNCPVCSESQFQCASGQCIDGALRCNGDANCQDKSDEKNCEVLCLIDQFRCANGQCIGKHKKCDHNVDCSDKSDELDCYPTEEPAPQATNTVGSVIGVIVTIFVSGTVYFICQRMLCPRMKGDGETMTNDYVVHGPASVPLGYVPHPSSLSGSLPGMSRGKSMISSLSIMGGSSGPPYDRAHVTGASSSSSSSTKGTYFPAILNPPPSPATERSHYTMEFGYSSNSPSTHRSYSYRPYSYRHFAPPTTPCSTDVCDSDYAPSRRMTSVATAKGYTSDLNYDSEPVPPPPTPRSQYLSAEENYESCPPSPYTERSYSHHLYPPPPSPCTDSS

With `C=CCSSC[C@H](N)C(=O)O` [SAMC, S-allylmercaptocysteine], the Kd stood at 5.65 µM.

Broadly, the Kd is the free concentration of one partner at which half of the binding sites on the other are occupied at equilibrium, for simple one-to-one binding.
